Active and inactive are the calls of the source.
Key:
[1] = tested on: BJ; experiment: cytotoxicity toward BJ-TERT-LT-ST fibroblasts, dose response, cell-based, RAS-independent, luminescence (AID 1935); assay type: functional; conditions: Homo sapiens;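 note: BJ fibroblasts immortalized with TERT plus LT and ST oncogenes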
[2] = molecular target: Beta Lactamase (Pseudomonas aeruginosa, UniProt Q932Y6); experiment: beta-lactamase reporter inhibitor potency, dose response, artefact control for TLR9-MyD88 binding inhibitor project, BLA reporter cells, FRET fluorescence (AID 588341); assay type: cell-based;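 note: cell based assay in CHO-K1 cells stably expressing beta-lactamase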
Sequence of Beta Lactamase (Q932Y6 whole entry): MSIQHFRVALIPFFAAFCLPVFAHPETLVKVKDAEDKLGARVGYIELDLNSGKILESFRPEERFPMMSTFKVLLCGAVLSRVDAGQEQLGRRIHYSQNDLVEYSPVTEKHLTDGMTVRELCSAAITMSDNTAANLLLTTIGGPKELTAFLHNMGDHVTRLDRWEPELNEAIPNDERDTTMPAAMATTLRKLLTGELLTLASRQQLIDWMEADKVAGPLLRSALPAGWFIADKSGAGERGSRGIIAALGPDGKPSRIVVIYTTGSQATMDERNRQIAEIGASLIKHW

[3] = tested on: BJ; experiment: cells; assay type: functional, cell-based; conditions: Homo sapiens
[4] = molecular target: T1, Sphingosine 1-phosphate receptor 4 (Homo sapiens, UniProt O95977); experiment: Fluorescence dose response cell-based high throughput screening assay for antagonists of the Sphingosine 1-Phosphate Receptor 4 (S1P4). [Related pubchem assays: 1524 (Confirmation in triplicates.), 1510 (Primary screen.)]; assay type: functional
T1 sequence (O95977 whole entry): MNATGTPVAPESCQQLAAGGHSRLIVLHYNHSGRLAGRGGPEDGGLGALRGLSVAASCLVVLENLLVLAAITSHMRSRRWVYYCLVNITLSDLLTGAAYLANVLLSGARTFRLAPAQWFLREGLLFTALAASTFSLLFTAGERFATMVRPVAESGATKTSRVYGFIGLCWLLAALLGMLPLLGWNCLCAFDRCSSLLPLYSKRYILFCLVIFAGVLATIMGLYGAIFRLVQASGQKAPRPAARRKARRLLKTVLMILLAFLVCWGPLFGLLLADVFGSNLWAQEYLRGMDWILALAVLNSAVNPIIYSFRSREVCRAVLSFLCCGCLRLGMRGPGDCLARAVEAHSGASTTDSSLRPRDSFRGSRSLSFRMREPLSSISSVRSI

[5] = tested on: BJ; experiment: cytotoxicity toward BJ-TERT fibroblasts, dose response, cell-based, RAS-independent, luminescence (AID 1933); assay type: functional; conditions: Homo sapiens
[6] = molecular target: Sphingosine 1-phosphate receptor 1 (Homo sapiens, UniProt P21453); assay type: functional;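 note: Tango beta-arrestin reporter U2OS cells stimulated with S1P near its EC80; inhibitor potency meaning antagonism of receptor activation by the natural agonist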
Sequence of Sphingosine 1-phosphate receptor 1 (P21453 whole entry): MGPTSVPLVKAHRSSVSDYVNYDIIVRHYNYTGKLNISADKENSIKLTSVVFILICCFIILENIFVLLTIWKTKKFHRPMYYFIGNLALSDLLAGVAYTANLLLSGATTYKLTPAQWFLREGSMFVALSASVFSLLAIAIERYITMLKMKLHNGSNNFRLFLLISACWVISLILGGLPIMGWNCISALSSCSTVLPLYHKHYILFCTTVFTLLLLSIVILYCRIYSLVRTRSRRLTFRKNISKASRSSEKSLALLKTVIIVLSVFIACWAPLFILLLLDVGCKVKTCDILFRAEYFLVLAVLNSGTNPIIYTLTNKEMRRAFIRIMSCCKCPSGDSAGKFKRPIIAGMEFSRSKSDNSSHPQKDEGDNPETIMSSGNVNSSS

[7] = molecular target: T2, Heat shock factor protein 1 (Mus musculus, UniProt P38532); experiment: inhibition of MG132-induced HSE-luciferase signal, confirmation, cell-based, NIH3T3, luminescence, dose retest (AID 2382); assay type: functional;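 note: NIH3T3 fibroblasts with HSF1-driven luciferase reporter stressed by proteasome inhibitor MG132; luminescence from HSF1-driven luciferase expression after 8 hours of MG132 stress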
T2 sequence (P38532 whole entry): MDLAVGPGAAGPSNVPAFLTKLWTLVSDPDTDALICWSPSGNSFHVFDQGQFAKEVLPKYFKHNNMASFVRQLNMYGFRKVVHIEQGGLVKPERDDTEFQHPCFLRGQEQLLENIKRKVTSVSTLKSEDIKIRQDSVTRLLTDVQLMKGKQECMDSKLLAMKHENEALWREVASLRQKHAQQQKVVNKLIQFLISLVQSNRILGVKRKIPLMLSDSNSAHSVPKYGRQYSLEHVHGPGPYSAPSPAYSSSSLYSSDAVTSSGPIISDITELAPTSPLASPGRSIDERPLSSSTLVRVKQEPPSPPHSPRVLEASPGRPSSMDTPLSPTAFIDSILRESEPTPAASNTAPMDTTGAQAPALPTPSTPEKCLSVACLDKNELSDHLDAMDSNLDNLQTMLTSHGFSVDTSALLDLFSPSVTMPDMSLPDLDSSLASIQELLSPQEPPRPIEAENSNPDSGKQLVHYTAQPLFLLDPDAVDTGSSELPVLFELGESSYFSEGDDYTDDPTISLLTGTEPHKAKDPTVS

[8] = tested on: CHO; experiment: cytotoxicity in TLR9-MyD88 CHO cells, dose response, cytotoxicity control for TLR9-MyD88 binding inhibitor project, cell-based, luminescence (AID 588339); assay type: functional, hamster; conditions: Cricetulus griseus;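 note: CHO cells stably coexpressing TLR9 and MyD88 fusions from primary screen; compound exposure lasted 48 hours before viability readout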
[9] = cytotoxicity toward DRD oncogenic fibroblasts, dose response, cell-based, non-viral oncogenic, luminescence (AID 1934); assay type: functional; conditions: Homo sapiens
[10] = molecular target: Integrin alpha-4 (Homo sapiens, UniProt P13612); experiment: VLA-4 integrin allosteric ligands, SAR follow-up, cell-based, LIBS antibody binding, flow cytometry (AID 488791); assay type: functional
Sequence of Integrin alpha-4 (P13612 whole entry): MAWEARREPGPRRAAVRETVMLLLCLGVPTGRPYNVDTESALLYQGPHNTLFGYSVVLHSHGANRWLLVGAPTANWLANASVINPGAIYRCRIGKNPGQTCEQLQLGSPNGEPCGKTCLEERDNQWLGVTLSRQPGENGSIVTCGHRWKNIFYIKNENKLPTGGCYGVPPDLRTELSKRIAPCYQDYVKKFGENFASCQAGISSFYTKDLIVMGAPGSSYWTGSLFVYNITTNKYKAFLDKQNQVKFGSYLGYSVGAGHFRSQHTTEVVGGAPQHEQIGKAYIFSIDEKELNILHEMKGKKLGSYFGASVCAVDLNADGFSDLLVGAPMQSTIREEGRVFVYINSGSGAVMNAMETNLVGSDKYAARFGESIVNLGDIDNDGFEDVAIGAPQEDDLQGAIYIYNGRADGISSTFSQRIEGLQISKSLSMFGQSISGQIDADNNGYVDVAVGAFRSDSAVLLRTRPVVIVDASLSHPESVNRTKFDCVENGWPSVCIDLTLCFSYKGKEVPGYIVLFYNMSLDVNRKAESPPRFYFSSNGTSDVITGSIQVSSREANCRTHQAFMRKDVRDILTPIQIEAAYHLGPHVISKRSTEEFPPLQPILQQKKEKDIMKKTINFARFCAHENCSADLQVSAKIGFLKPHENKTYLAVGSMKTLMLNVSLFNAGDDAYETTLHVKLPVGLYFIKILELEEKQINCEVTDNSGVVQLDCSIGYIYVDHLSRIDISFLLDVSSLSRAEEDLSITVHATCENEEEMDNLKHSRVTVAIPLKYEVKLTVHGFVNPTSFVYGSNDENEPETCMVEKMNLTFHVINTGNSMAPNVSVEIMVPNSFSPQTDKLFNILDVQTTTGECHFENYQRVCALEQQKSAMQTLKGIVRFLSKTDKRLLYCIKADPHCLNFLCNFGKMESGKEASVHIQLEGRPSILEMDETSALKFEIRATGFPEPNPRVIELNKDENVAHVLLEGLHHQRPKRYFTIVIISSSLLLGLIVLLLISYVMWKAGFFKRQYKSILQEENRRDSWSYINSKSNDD

[11] = molecular target: T3, Replicative DNA helicase DnaB (Mycobacterium tuberculosis, UniProt P9WMR3); experiment: DnaB intein splicing inhibitors, dose response, biochemical, cell-free fluorescence (AID 449749); assay type: functional
T3 sequence (P9WMR3 whole entry): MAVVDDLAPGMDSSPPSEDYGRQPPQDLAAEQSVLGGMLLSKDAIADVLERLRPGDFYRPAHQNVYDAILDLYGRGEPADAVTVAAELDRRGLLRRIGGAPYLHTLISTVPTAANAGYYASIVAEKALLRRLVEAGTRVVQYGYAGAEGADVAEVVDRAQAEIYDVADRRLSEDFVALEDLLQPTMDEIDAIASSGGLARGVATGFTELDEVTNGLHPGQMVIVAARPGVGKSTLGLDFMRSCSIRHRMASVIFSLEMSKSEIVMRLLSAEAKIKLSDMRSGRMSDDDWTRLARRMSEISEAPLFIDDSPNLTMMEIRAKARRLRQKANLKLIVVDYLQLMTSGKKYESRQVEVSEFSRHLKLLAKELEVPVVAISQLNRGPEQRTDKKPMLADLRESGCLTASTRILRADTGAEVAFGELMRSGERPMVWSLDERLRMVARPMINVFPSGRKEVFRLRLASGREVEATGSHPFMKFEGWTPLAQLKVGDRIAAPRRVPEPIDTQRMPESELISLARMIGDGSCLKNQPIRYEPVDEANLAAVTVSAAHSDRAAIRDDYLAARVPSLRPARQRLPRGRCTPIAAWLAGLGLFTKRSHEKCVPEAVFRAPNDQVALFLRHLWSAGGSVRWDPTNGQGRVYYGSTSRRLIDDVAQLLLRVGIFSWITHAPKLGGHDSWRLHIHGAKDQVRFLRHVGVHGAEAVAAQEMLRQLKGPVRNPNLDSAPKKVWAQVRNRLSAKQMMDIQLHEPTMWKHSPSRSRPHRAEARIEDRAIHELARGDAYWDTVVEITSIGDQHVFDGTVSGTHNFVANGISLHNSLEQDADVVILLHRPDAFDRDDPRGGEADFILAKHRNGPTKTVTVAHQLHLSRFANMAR

[12] = tested on: BJ; experiment: cytotoxicity toward Ras-transformed BJeLR fibroblasts, dose response, cell-based, alamar blue fluorescence, cherrypicked samples (AID 2631); assay type: functional; conditions: Homo sapiens;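 note: confirmatory dose-response assay in RAS-dependent BJ fibroblasts engineered with TERT, LT and ST, with cytotoxicity read by fluorescence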
[13] = Intein inhibitors as potential Tuberculosis drugs, a cytotoxicity screen. [Related pubchem assays (depositor defined):AID2221, AID2223, AID434968, AID435010, AID449749, AID449750, AID489010]; assay type: functional
[14] = molecular target: T4, Protein RecA (Mycobacterium tuberculosis, UniProt P9WHJ3); experiment: Fluorescence Cell-Free Homogeneous Dose Retest to Identify Inhibitors of RecA-Intein Splicing Activity. [Related pubchem assays (depositor defined):AID2097, AID2223, AID489010, AID492950]; assay type: functional
T4 sequence (P9WHJ3 whole entry): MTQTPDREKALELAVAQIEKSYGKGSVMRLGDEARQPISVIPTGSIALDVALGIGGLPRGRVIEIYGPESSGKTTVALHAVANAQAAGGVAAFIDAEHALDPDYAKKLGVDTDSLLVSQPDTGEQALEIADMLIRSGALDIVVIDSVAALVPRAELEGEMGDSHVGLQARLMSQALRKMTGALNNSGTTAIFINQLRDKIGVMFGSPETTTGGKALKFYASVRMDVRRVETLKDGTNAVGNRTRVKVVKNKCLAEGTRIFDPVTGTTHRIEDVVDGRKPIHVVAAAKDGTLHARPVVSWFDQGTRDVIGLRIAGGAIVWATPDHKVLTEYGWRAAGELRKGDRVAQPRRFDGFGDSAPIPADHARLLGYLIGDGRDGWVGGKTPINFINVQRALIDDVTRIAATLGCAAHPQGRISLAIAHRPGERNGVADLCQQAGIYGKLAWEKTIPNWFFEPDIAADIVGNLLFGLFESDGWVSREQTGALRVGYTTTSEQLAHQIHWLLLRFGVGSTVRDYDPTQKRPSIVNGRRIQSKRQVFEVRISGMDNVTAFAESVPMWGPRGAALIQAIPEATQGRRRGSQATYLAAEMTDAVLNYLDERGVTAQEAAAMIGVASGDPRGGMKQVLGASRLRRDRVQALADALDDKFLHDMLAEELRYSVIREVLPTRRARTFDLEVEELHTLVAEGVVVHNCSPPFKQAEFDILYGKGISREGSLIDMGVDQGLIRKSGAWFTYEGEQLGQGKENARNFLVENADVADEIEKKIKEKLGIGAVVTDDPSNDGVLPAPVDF

[15] = microbe, parasite or virus in culture; assay type: functional; conditions: Mycobacterium tuberculosis
[16] = molecular target: T5, Coagulation factor XII (Homo sapiens, UniProt P00748); experiment: FXIIa inhibitor potency, concentration-response, biochemical (AID 716); assay type: functional
T5 sequence (P00748 whole entry): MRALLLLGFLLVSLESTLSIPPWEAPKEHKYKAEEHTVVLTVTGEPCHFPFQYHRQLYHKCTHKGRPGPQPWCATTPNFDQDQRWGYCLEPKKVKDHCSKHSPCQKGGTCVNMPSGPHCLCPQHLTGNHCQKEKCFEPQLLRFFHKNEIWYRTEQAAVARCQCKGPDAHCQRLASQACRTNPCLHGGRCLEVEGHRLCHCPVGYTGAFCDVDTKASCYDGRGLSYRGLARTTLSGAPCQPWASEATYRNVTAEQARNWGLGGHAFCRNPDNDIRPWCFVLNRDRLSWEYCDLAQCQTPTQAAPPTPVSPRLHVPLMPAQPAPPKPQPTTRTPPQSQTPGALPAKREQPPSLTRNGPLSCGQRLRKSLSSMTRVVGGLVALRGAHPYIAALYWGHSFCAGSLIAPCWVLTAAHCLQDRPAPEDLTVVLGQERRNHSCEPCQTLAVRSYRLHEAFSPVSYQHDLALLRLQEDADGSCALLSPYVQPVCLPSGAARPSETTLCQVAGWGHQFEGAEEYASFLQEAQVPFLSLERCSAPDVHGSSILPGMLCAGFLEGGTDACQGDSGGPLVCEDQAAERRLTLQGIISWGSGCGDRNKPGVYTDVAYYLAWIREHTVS

[17] = molecular target: T6, Delta-type opioid receptor (Homo sapiens, UniProt P41143); experiment: SAR Analysis of Antagonists of the DOR Receptor using an Image-Based Assay - Set 3. [Related pubchem assays (depositor defined):AID1777, AID1785]; assay type: functional
T6 sequence (P41143 whole entry): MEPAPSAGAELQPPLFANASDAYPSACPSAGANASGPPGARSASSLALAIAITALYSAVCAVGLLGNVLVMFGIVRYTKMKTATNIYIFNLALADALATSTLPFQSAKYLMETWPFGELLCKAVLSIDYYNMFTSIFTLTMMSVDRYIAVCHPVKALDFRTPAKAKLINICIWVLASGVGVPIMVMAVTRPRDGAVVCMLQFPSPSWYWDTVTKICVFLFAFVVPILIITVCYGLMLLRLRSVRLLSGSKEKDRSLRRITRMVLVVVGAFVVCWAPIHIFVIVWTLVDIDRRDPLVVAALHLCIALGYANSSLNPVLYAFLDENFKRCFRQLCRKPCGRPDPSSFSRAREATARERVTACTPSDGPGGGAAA

[18] = molecular target: T7, Kappa-type opioid receptor (Homo sapiens, UniProt P41145); experiment: SAR analysis of Antagonists of the Kappa Opioid Receptor (KOR) using an Image-Based Assay - Set 4. [Related pubchem assays (depositor defined):AID1777, AID1785]; assay type: functional
T7 sequence (P41145 whole entry): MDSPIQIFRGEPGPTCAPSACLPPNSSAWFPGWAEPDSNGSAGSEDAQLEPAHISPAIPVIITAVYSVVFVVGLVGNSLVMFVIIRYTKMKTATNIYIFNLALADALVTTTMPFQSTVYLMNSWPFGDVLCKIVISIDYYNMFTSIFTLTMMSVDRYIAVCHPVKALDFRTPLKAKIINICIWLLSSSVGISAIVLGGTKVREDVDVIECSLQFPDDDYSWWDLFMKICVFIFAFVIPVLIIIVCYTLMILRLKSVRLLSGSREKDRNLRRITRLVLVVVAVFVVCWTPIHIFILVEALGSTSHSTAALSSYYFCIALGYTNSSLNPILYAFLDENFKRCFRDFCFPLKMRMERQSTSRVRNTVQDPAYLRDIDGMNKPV

[19] = molecular target: T8, Mu-type opioid receptor (Homo sapiens, UniProt P35372); experiment: SAR Analysis of Antagonists of the MOR Receptor using an Image-Based Assay - Set 3. [Related pubchem assays (depositor defined):AID1777, AID1785, AID1786, AID1966, AID2133, AID2136, AID2284, AID2285, AID2420]; assay type: functional
T8 sequence (P35372 whole entry): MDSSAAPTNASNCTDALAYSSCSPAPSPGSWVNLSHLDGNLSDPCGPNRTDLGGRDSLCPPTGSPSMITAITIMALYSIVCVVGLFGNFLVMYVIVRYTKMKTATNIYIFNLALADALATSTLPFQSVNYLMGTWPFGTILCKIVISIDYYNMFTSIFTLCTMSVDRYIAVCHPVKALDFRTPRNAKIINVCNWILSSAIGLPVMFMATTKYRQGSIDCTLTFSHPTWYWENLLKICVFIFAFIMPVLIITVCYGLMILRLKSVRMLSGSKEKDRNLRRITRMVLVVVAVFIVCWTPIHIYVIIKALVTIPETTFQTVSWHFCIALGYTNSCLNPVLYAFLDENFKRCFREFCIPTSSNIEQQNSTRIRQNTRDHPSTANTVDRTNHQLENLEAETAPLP

[20] = molecular target: T7, Kappa-type opioid receptor; experiment: SAR analysis of small molecule antagonists of the kappa opioid receptor via a luminescent beta-arrestin assay - Set 3. [Related pubchem assays (depositor defined):AID1777, AID1778, AID1785, AID1786, AID1966, AID2133, AID2136, AID2285, AID2495]; assay type: functional
[21] = molecular target: T7, Kappa-type opioid receptor; experiment: SAR analysis of small molecule agonists of the kappa opioid receptor via a luminescent beta-arrestin assay - Set 3. [Related pubchem assays (depositor defined):AID1777, AID1785, AID1786, AID1966, AID2133, AID2136, AID2284, AID2500]; assay type: functional
[22] = molecular target: T7, Kappa-type opioid receptor; experiment: KOR agonist analogs, arrestin-GFP redistribution, SAR follow-up, imaging, image-based, set 3 (AID 488833); assay type: functional
[23] = molecular target: T8, Mu-type opioid receptor; experiment: SAR Analysis of Agonists of the MOR Receptor using an Image-Based Assay - Set 3. [Related pubchem assays (depositor defined):AID1777, AID1785, AID1786, AID1966, AID2133, AID2136, AID2284, AID2285, AID2352]; assay type: functional
[24] = molecular target: T6, Delta-type opioid receptor; experiment: SAR Analysis of Agonists of the DOR Receptor using an Image-Based Assay - Set 3. [Related pubchem assays (depositor defined):AID1777, AID1786]; assay type: functional

CCOC(=O)COc1ccccc1/C=C\[N+](=O)[O-]
EC50 [1]: 3.99 µM (inconclusive)
IC50 [2]: > 49.7 µM (inactive)
EC50 [3]: 26.7 µM (active)
IC50 [4]: 0.962 µM (active)
EC50 [5]: 3.48 µM (inconclusive)
IC50 [6]: 3.42 µM (active)
EC50 [7]: 4.03 µM (active)
IC50 [8]: 1.92 µM (active)
EC50 [9]: 4.76 µM (active)
EC50 [10]: 0.335 µM (active)

COc1cc2c(cc1OC)C(c1cc(Br)ccc1F)N(C(=O)CCl)CC2 (centres undefined)
EC50 [1]: 5.02 µM (inconclusive)
AC50 [11]: 4.29 µM (active)
EC50 [3]: 6.1 µM (active)
EC50 [5]: 2.7 µM (inconclusive)
EC50 [12]: 1.41 µM (active)
EC50 [7]: 3.09 µM (active)
CC50 [13]: 4.2 µM (active)
EC50 [14]: 0.8 µM (active)
EC50 [9]: 5.12 µM (active)
CC50 [15]: 5.64 µM (active)

O=C(c1cccc(F)c1)n1nnc2ccccc21
IC50 [16]: 10.5 µM (active)

O=C(Cn1c(=O)c2cccn2c2cc(Br)cnc21)NCCCN1CCN(c2ccc(Cl)cc2)CC1
IC50 [17]: > 32 µM (inactive)
IC50 [18]: > 32 µM (inactive)
IC50 [19]: 5.32 µM (active)
IC50 [20]: > 20 µM (inactive)

COc1cccc(CSc2nnc(-c3ccccn3)n2Cc2cccs2)c1
EC50 [21]: 8.72 µM (active)
EC50 [22]: 12.2 µM (inactive)
EC50 [23]: > 32 µM (inactive)
EC50 [24]: > 32 µM (inactive)

Reference: ChEMBL document CHEMBL1201862, “PubChem BioAssay data set” (2004)
